From ChEMBL document CHEMBL1201862, “PubChem BioAssay data set” (2004) come the findings set out here.

Test systems include 786-0; DU-145; HCC 2998; Hs-578T; LOX IMVI; M14; MCF7; MDA-MB-231; NCI-H226; NCI/ADR-RES; PC-3; TK-10; U-251; CCRF-CEM; SK-MEL-2.
Holding throughout (test): NCI anticancer screen, dose series, 48 h

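Tested at 5 concentrations; 48 h exposure; 96-well plates; endpoints linearly interpolated, else capped at highest concentration. GI50 is the concentration that inhibits growth by half.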 Active and inactive are the calls of the source. No stated cut-off is given here; in the data, active = GI50 up to about 1.1 µM and inactive = higher.

With `CC(=O)OCC1OC(n2c(-c3ccc(Cl)cc3)cc(-c3ccccc3)c(C#N)c2=S)C(OC(C)=O)C(OC(C)=O)C1OC(C)=O` (configuration not stated), the GI50 is 12.2 µM (inactive) in the test on 786-0; 15.7 µM (inactive) in the test with DU-145; 7.14 µM (inactive) in the test on HCC 2998; 2.71 µM (inactive) in the test on Hs-578T; 4.29 µM (inactive) with LOX IMVI; 4.98 µM (inactive) with M14. The GI50 is 17.3 µM (inactive) with MCF7; 4.33 µM (inactive) in the test with MDA-MB-231; 4.28 µM (inactive) with NCI-H226; 6.71 µM (inactive) in the test on NCI/ADR-RES; 11.3 µM (inactive) in the test with PC-3; 27.4 µM (inactive) in the test on TK-10. Moreover, the GI50 with U-251 was 8.67 µM (inactive).

As for `O=c1c(-c2ccccc2)c(SCCCN2CCCCC2)n(-c2ccccc2)c(=S)n1-c1ccccc1`, the GI50 was 15.7 µM (inactive) with CCRF-CEM; 17.7 µM (inactive) with DU-145; 3.83 µM (inactive) in the test with HCC 2998; 34.2 µM (inactive) in the test on Hs-578T; 16.3 µM (inactive) in the test with LOX IMVI; 15.6 µM (inactive) in the test with MCF7. The GI50 in the test with MDA-MB-231 was 14.5 µM (inactive); in the test on NCI-H226 it was 15.3 µM (inactive); in the test with NCI/ADR-RES, 16.5 µM (inactive); in the test on PC-3 it was 16.5 µM (inactive); with SK-MEL-2, 15.9 µM (inactive); with TK-10, 16.9 µM (inactive). In the test on U-251, the GI50 is 15.6 µM (inactive).

With `O=C(O)C(CCc1ccccc1)N1C(=O)c2ccccc2C1=O` (configuration not stated), the GI50 in the test with 786-0, with CCRF-CEM, with DU-145, with LOX IMVI, in the test on M14 and with MCF7 was > 100 µM (inactive) each time. In addition, the GI50 in the test with MDA-MB-231, in the test with NCI-H226, with NCI/ADR-RES, in the test with PC-3, in the test on SK-MEL-2 and in the test on TK-10 was > 100 µM (inactive) each time. For the same molecule, the GI50 in the test with U-251 was > 100 µM (inactive).

For `COc1ccc(NCC(=O)Nn2c(-c3ccccc3)nc3ccccc3c2=O)cc1`, the GI50 with 786-0 was 25.6 µM (inactive); in the test with CCRF-CEM, 24.2 µM (inactive); in the test on DU-145, > 100 µM (inactive); with HCC 2998 it was 77.6 µM (inactive); with Hs-578T it was 28.1 µM (inactive); in the test on LOX IMVI, 19.6 µM (inactive). For the same molecule, the GI50 in the test with M14 is 41.3 µM (inactive); in the test on MCF7 it was 18.2 µM (inactive); in the test on MDA-MB-231, 19 µM (inactive); with NCI-H226, > 100 µM (inactive); in the test with NCI/ADR-RES it was 25.2 µM (inactive); with PC-3, 35.6 µM (inactive). The GI50 was > 100 µM (inactive) in the test on TK-10 and 28.7 µM (inactive) with U-251.

For the molecule `c1ccc(CSC(SCc2ccccc2)c2cccc3ccccc23)cc1`, the GI50 in the test on CCRF-CEM, in the test with DU-145, with HCC 2998, with Hs-578T, in the test on M14 and in the test with MCF7 was > 10 µM (inactive) throughout. The GI50 in the test on MDA-MB-231, in the test on NCI-H226, in the test with NCI/ADR-RES, in the test on PC-3, in the test with SK-MEL-2 and with TK-10 was > 10 µM (inactive) throughout. Also, in the test on U-251, the GI50 is > 10 µM (inactive).

Regarding `Cc1cn(Cc2cnnn2CC2OC(n3cc(C)c(=O)[nH]c3=O)CC2O)c(=O)[nH]c1=O` (configuration not stated), the GI50 in the test with CCRF-CEM, with DU-145, with HCC 2998, with Hs-578T, in the test on LOX IMVI and with M14 was > 100 µM (inactive) in each case. In addition, the GI50 in the test on MCF7, in the test on MDA-MB-231, in the test on NCI-H226, in the test on NCI/ADR-RES, with PC-3 and in the test on SK-MEL-2 was > 100 µM (inactive) throughout. For the same molecule, the GI50 in the test with TK-10 and with U-251 was > 100 µM (inactive) in each case.

As to `CC1(C)OP(=O)(O)CC1=O`, the GI50 with 786-0, with DU-145, in the test with HCC 2998, in the test with Hs-578T, with LOX IMVI and in the test with M14 was > 100 µM (inactive) throughout. Moreover, the GI50 in the test on MCF7, with NCI-H226, with NCI/ADR-RES, in the test on PC-3, in the test on SK-MEL-2 and in the test with TK-10 was > 100 µM (inactive) in each case. Also, in the test with U-251, the GI50 is > 100 µM (inactive).

With `CCOC(=O)CSc1c(C(=O)OCC)c(=O)n(-c2ccccc2)c(=S)n1-c1ccccc1`, the GI50 in the test with 786-0 was 85.5 µM (inactive); with CCRF-CEM it was 4.92 µM (inactive); in the test on DU-145, 82 µM (inactive); with Hs-578T it was 33 µM (inactive); in the test on LOX IMVI, 15.6 µM (inactive); in the test on M14 it was > 100 µM (inactive). The GI50 in the test with MCF7 was 15.2 µM (inactive); in the test with NCI-H226, 36.5 µM (inactive); in the test with NCI/ADR-RES it was 2.99 µM (inactive); in the test on PC-3, 4.61 µM (inactive); in the test on SK-MEL-2 it was 83 µM (inactive); in the test with TK-10, > 100 µM (inactive). Moreover, the GI50 with U-251 is 13.3 µM (inactive).

As to `CN1C(=O)CN=C(c2ccccc2F)c2cc(N=C=S)ccc21`, the GI50 in the test with 786-0 is 43.8 µM (inactive); in the test with CCRF-CEM it was 19.2 µM (inactive); in the test with DU-145 it was 86.3 µM (inactive); in the test on HCC 2998 it was 50.8 µM (inactive); with Hs-578T it was 61.7 µM (inactive); in the test on LOX IMVI it was 41.4 µM (inactive). Besides, the GI50 in the test on M14 was 52.1 µM (inactive); with MCF7, 29.5 µM (inactive); with MDA-MB-231, 45.8 µM (inactive); in the test with NCI/ADR-RES, 43.1 µM (inactive); with PC-3, 45.9 µM (inactive); in the test with SK-MEL-2, 92.3 µM (inactive). Moreover, the GI50 with TK-10 is 37.4 µM (inactive); in the test on U-251 it was 48.4 µM (inactive).

`FC(F)(F)C(C1=NC(C(F)(F)F)(C(F)(F)F)N=C(N2CCOCC2)O1)C(F)(F)F`: the GI50 in the test with CCRF-CEM is 4.71 µM (inactive); in the test with DU-145 it was 35.5 µM (inactive); in the test with HCC 2998, 41.5 µM (inactive); with Hs-578T, 32.4 µM (inactive); in the test on LOX IMVI it was 17.8 µM (inactive); in the test with M14, 18.8 µM (inactive). The GI50 in the test on MCF7 was > 10 µM (inactive); in the test with MDA-MB-231, 14.4 µM (inactive); in the test with NCI/ADR-RES, 16.6 µM (inactive); in the test on PC-3 it was 16.9 µM (inactive); in the test with SK-MEL-2, 22.2 µM (inactive); in the test on TK-10 it was 28.7 µM (inactive). The GI50 in the test with U-251 is 19.9 µM (inactive).

With `COC1/C=C/C(C)C(C(C)C(OC)C(C)CCC(=O)C(C)C(C/C=C/N(C)C=O)OC)OC(=O)/C=C/C=C(\C)CC(OC)CC2=CC(=O)O[C@H](C2)C(C)C(OC)CC(OC)/C=C/C(C)C(OC)C1` (some centres not stated), the GI50 is < 0.005 µM (active) in the test with CCRF-CEM; 0.191 µM (active) in the test on DU-145; 0.0133 µM (active) with HCC 2998; 0.0158 µM (active) in the test on Hs-578T; < 0.005 µM (active) with LOX IMVI; 0.0292 µM (active) in the test with MCF7. In addition, the GI50 in the test with NCI/ADR-RES is 0.0107 µM (active); in the test on PC-3, 0.00989 µM (active); with SK-MEL-2, 0.00733 µM (active).
